From DBAASP
≈ marks a conversion by molar mass, not a printed value.

Assays:
Assay in all cases: ≥ marks a high value that may be exact or a test limit, other limits are often not marked, values filed in µg/mL are converted to µM
[1] = tested on: Micrococcus luteus NBRC 12708
[2] = tested on: Pseudomonas aeruginosa NBRC 12582
[3] = tested on: Staphylococcus aureus NBRC 12732
[4] = tested on: Escherichia coli NBRC 14237
[5] = tested on: Porphyromonas gingivalis ATCC 33277
Candida krusei CCM 8271 = tested on: Candida krusei CCM 8271
[6] = tested on: Xanthomonas campestris pv. Vesicatoria 2133-2
[7] = tested on: Pseudomonas syringae pv. syringae EPS 94
[8] = tested on: Candida albicans CCM 8186
[9] = tested on: Staphylococcus epidermidis PCM 2118
[10] = tested on: Fusobacterium nucleatum ATCC 10953
[11] = tested on: Staphylococcus aureus PCM 2054
[12] = tested on: Candida parapsilosis CCM 8260
[13] = tested on: Erwinia amylovora PMV 6076
[14] = tested on: Escherichia coli PCM 2057
[15] = tested on: Xanthomonas fragariae Xf349-9A
[16] = tested on: Pseudomonas aeruginosa PCM 499
[17] = tested on: Xanthomonas arboricola pv. pruni CFBP 5563
[18] = tested on: Pseudomonas syringae pv. actinidiae Psa3700.1.1
Bacillus subtilis = tested on: Bacillus subtilis
[19] = tested on: Candida glabrata CCM 8270
Bacillus cereus = tested on: Bacillus cereus
[20] = tested on: Candida tropicalis CCM 8264
[21] = tested on: Enterococcus faecium CGMCC 1.2334
Bacillus cereus AS1.126 = tested on: Bacillus cereus AS1.126
[22] = tested on: Lactococcus lactis AS1.1690
[23] = tested on: Pseudomonas aeruginosa CGMCC 1.860
[24] = tested on: Enterobacter cloacae CGMCC 1.58
Escherichia coli AS1.349 = tested on: Escherichia coli AS1.349
[25] = tested on: Klebsiella pneumoniae subsp. pneumoniae CGMCC 1.176
[26] = tested on: Proteus mirabilis CICC 22931
[27] = tested on: Klebsiella aerogenes CGMCC 1.876
[28] = tested on: Acinetobacter baumannii CICC 22934
[29] = tested on: Enterococcus faecalis CGMCC 1.595
[30] = tested on: Staphylococcus aureus AS1.72
[31] = tested on: Psychrobacter faecalis X29
[32] = tested on: Enterococcus faecalis 981
Candida glabrata 090902 = tested on: Candida glabrata 090902
[33] = tested on: Nocardia asteroides 201118
[34] = tested on: Staphylococcus aureus ATCC 25923
[35] = tested on: Pseudomonas aeruginosa Pa1-SA2
[36] = tested on: Pseudomonas aeruginosa PA006
[37] = tested on: Pseudomonas aeruginosa Pa4-SA2
[38] = tested on: Pseudomonas aeruginosa PAO1
[39] = tested on: Escherichia coli ATCC 25922
[40] = tested on: Pseudomonas aeruginosa ATCC 27853
[41] = tested on: Klebsiella pneumoniae ATCC 700603
[42] = tested on: Salmonella enterica subsp. enterica serovar Typhimurium ATCC 14028
[43] = tested on: Staphylococcus aureus ATCC 29313

## CC[C@H](C)[C@H](NC(=O)[C@@H](N)Cc1ccccc1)C(=O)NCC(=O)N[C@@H](C)C(=O)N[C@@H](CC(C)C)C(=O)N[C@@H](CC(C)C)C(=O)NCC(=O)N1CCC[C@H]1C(=O)N[C@@H](CC(C)C)C(=O)N[C@@H](CC(C)C)C(=O)N[C@@H](CC(N)=O)C(=O)N[C@@H](CC(C)C)C(=O)N[C@@H](CC(C)C)C(=O)N[C@@H](CCCCN)C(N)=O [FIGALLGPLLNLLK]
[1]
  MIC: 12.5 µM (≈ 18.5 µg/mL)
[2]
  MIC: ≥ 50 µM
[3]
  MIC: 12.5 µM (≈ 18.5 µg/mL)
[4]
  MIC: ≥ 50 µM

## CC(C)[C@H](NC(=O)[C@H](Cc1c[nH]c2ccccc12)NC(=O)[C@H](Cc1ccccc1)NC(=O)[C@@H](NC(=O)[C@@H](NC(=O)[C@H](CCCCN)NC(=O)[C@@H](N)CCCCN)C(C)C)C(C)C)C(=O)N[C@@H](CCCCN)C(=O)N[C@@H](Cc1ccccc1)C(=O)N[C@@H](CCCCN)C(N)=O [KKVVFWVKFK]
[5]
  MIC: ≥ 95.5 µM
Candida krusei CCM 8271
  MIC: 5.96 µM (≈ 7.79 µg/mL)
[6]
  MIC: 8.8 µM (≈ 11.5 µg/mL)
[7]
  MIC: 8.8 µM (≈ 11.5 µg/mL)
[8]
  MIC: 5.96 µM (≈ 7.79 µg/mL)
[9]
  MIC: 5.96 µM (≈ 7.79 µg/mL)
[10]
  MIC: 11.9 µM (≈ 15.6 µg/mL)
[11]
  MIC: 19.1 µM (≈ 25 µg/mL)
[12]
  MIC: 1.53 µM (≈ 2 µg/mL)
[13]
  MIC: 8.8 µM (≈ 11.5 µg/mL)
[14]
  MIC: 5.96 µM (≈ 7.79 µg/mL)
[15]
  MIC: 4.38 µM (≈ 5.73 µg/mL)
[16]
  MIC: 19.1 µM (≈ 25 µg/mL)
[17]
  MIC: 1.13 µM (≈ 1.48 µg/mL)
[18]
  MIC: 2.23 µM (≈ 2.91 µg/mL)
Bacillus subtilis
  MIC: 5.96 µM (≈ 7.79 µg/mL)
[19]
  MIC: 11.9 µM (≈ 15.6 µg/mL)
Bacillus cereus
  MIC: ≥ 38.2 µM
[20]
  MIC: 1.53 µM (≈ 2 µg/mL)

## CC(C)C[C@H](NC(=O)[C@H](CCCCN)NC(=O)[C@H](CCCN=C(N)N)NC(=O)[C@H](Cc1cnc[nH]1)NC(=O)[C@H](C)NC(=O)[C@H](CCCN=C(N)N)NC(=O)[C@H](Cc1cnc[nH]1)NC(=O)[C@H](CC(C)C)NC(=O)[C@H](Cc1ccccc1)NC(=O)[C@H](CCCN=C(N)N)NC(=O)[C@H](CCCN=C(N)N)NC(=O)[C@H](CC(C)C)NC(=O)[C@H](Cc1cnc[nH]1)NC(=O)[C@H](CCCN=C(N)N)NC(=O)[C@H](CC(C)C)NC(=O)[C@@H](NC(=O)[C@H](CCCCN)NC(=O)[C@@H](N)CO)C(C)C)C(=O)O [SKVLRHLRRFLHRAHRKL]
[21]
  MIC: 3.13 µM (≈ 7.27 µg/mL)
Bacillus cereus AS1.126
  MIC: 1.56 µM (≈ 3.63 µg/mL)
[22]
  MIC: 3.13 µM (≈ 7.27 µg/mL)
[23]
  MIC: ≥ 100 µM
[24]
  MIC: ≥ 100 µM
Escherichia coli AS1.349
  MIC: ≥ 100 µM
[25]
  MIC: ≥ 100 µM
[26]
  MIC: ≥ 100 µM
[27]
  MIC: ≥ 100 µM
[28]
  MIC: ≥ 100 µM
[29]
  MIC: 3.13 µM (≈ 7.27 µg/mL)
[30]
  MIC: 2.34 µM (≈ 5.44 µg/mL)

## CC[C@H](C)[C@H](NC(=O)[C@H](CC(C)C)NC(=O)CNC(=O)[C@@H]1CCCN1C(=O)[C@H](CC(C)C)NC(=O)[C@@H](N)Cc1ccccc1)C(=O)N[C@@H](CCCCN)C(=O)N[C@@H](C)C(=O)N[C@@H](C)C(=O)N[C@H](C(=O)NCC(=O)N[C@H](C(=O)NCC(=O)N[C@@H](CO)C(=O)N[C@H](C(=O)N[C@H](C(=O)N[C@@H](CC(C)C)C(=O)N[C@H]1CSSC[C@@H](C(=O)O)NC(=O)[C@H](CCCCN)NC(=O)[C@H](CCCCN)NC(=O)[C@H]([C@@H](C)O)NC(=O)[C@H]([C@@H](C)CC)NC(=O)[C@H](CCCCN)NC1=O)[C@@H](C)CC)[C@@H](C)O)C(C)C)C(C)C [FLPGLIKAAVGVGSTILCKITKKC]
[31]
  MIC: ≥ 50 µM
[32]
  MIC: 6.3 µM (≈ 15.5 µg/mL)
Candida glabrata 090902
  MIC: 12.5 µM (≈ 30.7 µg/mL)
[33]
  MIC: 6.3 µM (≈ 15.5 µg/mL)
[34]
  MIC: 12.5 µM (≈ 30.7 µg/mL)

## CC[C@H](C)[C@H](NC(=O)[C@H](C)NC(=O)[C@H](Cc1cnc[nH]1)NC(=O)[C@H](C)NC(=O)[C@@H](NC(=O)[C@H](CC(C)C)NC(=O)[C@H](CC(=O)O)NC(=O)[C@H](CCCCN)NC(=O)CNC(=O)[C@H](C)NC(=O)CNC(=O)[C@H](CCCCN)NC(=O)[C@@H](NC(=O)[C@@H](NC(=O)[C@H](CC(=O)O)NC(=O)[C@@H](NC(=O)[C@@H](NC(=O)CN)C(C)C)[C@@H](C)CC)[C@@H](C)CC)[C@@H](C)CC)[C@@H](C)CC)C(=O)NCC(=O)N[C@@H](CCCCN)C(=O)N[C@@H](CC(C)C)C(=O)N[C@@H](C)C(=O)N[C@@H](CCC(=O)O)C(=O)N[C@@H](CCCCN)C(=O)N[C@H](C(N)=O)C(C)C [GVIDIIKGAGKDLIAHAIGKLAEKV]
[35]
  MIC: ≥ 50.6 µM
[36]
  MIC: 6.32 µM (≈ 16 µg/mL)
[37]
  MIC: 25.3 µM (≈ 64 µg/mL)
[38]
  MIC: 202 µM (≈ 512 µg/mL)
[39]
  MIC: 316 µM (≈ 800 µg/mL)
[40]
  MIC: > 202 µM
[41]
  MIC: > 316 µM
[42]
  MIC: > 316 µM
[43]
  MIC: ≥ 316 µM
